According to ChEMBL document CHEMBL3596090, “Discovery of novel pyrazole-containing benzamides as potent RORγ inverse agonists” (Bioorg Med Chem Lett, 2015):
pEC50: −log10 of the molar value. ≈ marks a conversion by molar mass, not a printed value.

Tests used:
[1] = molecular target: T1, Nuclear receptor ROR-gamma (Mus musculus, UniProt P51450); assay: Inverse agonist activity at RORgamma in C57BL/6 mouse splenocytes assessed as reduction of IL-17 production after 2 days by ELISA; assay type: cell-based
T1 sequence (P51450 whole entry): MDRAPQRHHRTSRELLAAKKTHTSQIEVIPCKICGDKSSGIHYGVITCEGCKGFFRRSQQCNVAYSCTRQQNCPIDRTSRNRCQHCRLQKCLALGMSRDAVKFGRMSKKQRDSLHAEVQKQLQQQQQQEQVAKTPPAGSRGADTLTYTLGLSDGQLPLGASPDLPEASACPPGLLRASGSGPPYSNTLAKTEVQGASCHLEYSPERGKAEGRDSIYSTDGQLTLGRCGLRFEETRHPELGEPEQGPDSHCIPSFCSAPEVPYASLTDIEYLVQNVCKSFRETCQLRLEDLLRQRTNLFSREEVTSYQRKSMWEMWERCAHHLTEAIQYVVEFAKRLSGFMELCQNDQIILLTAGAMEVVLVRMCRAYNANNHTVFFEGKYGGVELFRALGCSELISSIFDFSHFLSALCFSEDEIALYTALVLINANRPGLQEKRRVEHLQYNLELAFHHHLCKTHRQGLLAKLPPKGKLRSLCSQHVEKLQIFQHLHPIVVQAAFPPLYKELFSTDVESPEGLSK

[2] = Kinetic aqueous solubility of the compound; assay type: physicochemical; details: buffer; read-out: Kinetic_solubility
[3] = Percentage unbound in human plasma; assay type: ADME, cell-free
[4] = Percentage unbound in rat plasma; assay type: ADME, cell-free
[5] = molecular target: T2, Nuclear receptor ROR-alpha (Homo sapiens, UniProt P35398); assay: Inverse agonist activity at RORalpha (unknown origin)
T2 sequence (P35398 whole entry): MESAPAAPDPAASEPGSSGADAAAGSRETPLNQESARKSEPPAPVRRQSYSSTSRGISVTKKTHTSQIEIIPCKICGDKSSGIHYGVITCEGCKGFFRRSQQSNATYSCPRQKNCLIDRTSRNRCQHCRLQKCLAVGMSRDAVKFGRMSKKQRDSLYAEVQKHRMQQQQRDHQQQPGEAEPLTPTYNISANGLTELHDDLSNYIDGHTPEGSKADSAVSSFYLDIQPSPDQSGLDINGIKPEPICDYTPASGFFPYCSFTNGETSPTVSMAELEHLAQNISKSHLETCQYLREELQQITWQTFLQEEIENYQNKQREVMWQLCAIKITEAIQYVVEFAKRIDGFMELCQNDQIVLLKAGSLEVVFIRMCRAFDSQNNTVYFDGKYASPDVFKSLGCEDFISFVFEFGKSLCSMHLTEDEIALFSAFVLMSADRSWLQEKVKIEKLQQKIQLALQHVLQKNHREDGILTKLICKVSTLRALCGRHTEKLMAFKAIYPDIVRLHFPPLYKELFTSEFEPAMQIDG

[6] = molecular target: T3, Nuclear receptor ROR-beta (Homo sapiens, UniProt Q92753); assay: Inverse agonist activity at RORbeta (unknown origin)
T3 sequence (Q92753 whole entry): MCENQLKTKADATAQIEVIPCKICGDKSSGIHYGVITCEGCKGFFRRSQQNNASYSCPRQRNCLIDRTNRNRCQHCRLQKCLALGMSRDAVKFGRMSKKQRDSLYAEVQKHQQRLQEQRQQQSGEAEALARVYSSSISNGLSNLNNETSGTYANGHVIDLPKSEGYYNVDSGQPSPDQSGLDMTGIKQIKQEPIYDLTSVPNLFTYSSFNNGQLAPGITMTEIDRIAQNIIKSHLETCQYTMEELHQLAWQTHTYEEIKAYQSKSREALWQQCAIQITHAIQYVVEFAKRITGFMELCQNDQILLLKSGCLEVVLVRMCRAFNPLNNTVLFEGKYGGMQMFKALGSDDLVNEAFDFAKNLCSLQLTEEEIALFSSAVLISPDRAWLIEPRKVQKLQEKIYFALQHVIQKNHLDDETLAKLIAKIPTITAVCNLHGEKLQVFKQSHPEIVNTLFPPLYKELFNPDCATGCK

[7] = molecular target: T4, Nuclear receptor subfamily 1 group I member 2 (Homo sapiens, UniProt O75469); assay: Activation of PXR (unknown origin)
T4 sequence (O75469 whole entry): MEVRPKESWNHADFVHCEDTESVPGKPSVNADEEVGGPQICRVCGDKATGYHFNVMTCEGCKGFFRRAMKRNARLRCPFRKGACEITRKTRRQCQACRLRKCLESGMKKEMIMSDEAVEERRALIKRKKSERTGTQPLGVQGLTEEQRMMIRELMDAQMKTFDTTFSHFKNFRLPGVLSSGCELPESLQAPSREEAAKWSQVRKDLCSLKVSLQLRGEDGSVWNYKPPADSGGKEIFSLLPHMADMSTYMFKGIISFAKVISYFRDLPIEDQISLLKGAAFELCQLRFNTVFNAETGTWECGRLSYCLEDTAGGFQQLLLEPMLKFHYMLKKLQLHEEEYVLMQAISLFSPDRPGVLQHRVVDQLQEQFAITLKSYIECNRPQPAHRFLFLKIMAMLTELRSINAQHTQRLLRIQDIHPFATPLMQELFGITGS

[8] = molecular target: T5, Nuclear receptor ROR-gamma (Homo sapiens, UniProt P51449); assay: Inverse agonist activity at RORgamma (unknown origin) transfected in HEK293T cells after 16 to 20 hrs by GAL4 luciferase reporter gene assay; assay type: functional, cell-based, HEK-293T
T5 sequence (P51449 whole entry): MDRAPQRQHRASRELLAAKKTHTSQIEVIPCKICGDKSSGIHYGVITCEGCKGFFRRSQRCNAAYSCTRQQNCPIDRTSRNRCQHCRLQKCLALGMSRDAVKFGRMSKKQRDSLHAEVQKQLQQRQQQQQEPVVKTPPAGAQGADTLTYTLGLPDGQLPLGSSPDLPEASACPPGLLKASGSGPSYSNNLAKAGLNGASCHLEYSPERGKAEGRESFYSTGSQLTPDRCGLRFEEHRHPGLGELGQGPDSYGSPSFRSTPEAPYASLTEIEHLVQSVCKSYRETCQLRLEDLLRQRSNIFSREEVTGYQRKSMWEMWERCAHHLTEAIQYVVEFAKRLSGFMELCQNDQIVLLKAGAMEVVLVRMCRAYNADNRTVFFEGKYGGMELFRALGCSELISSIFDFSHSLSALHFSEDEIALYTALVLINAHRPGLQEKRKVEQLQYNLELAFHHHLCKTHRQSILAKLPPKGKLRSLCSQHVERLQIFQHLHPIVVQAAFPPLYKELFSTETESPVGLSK

Row | SMILES | pEC50 [1] | solubility kinetic [2] | fraction unbound [3] | fraction unbound [4] | pEC50 [5] | pEC50 [6] | pEC50 [7] | pEC50 [8]
1 | [2H]C([2H])([2H])N(C(=O)c1c(F)cccc1Cl)c1ccc(-c2cc(C(N)=O)nn2C(C)C)cc1OCC(F)(F)F | 5.70 | 32 µg/mL (≈ 62 µM) | 0.059 | 0.031 |  |  |  | 
2 | [2H]C([2H])([2H])N(C(=O)c1c(F)cccc1Cl)c1ccc(-c2cnn(C)c2C(C)C)cc1OCC(F)(F)F | 6.09 | < 0.1 µg/mL | 0.009 | 0.006 |  |  |  | 
3 | [2H]C([2H])([2H])N(C(=O)c1c(F)cccc1Cl)c1ccc(-c2cc(NC(C)=O)nn2C(C)C)cc1OCC(F)(F)F |  | 27 µg/mL (≈ 50.9 µM) |  |  |  |  |  | 
4 | [2H]C([2H])([2H])N(C(=O)c1c(F)cccc1Cl)c1ccc(-c2cc(NC(C)=O)nn2C(C)C)cc1OCC1CCC1 | 5.51 |  |  |  | 5.92 | 6.05 | < 5.00 | 
5 | [2H]C([2H])([2H])N(C(=O)c1c(F)cccc1Cl)c1ccc(-c2cc(NC(C)=O)nn2C(C)C)cc1OCC(C)C |  |  | 0.003 | 0.002 |  |  |  | 
6 | [2H]C([2H])([2H])N(C(=O)c1c(F)cccc1Cl)c1ccc(-c2cc(NC(C)=O)nn2C(C)C)cc1N1CCCC1 |  | 12 µg/mL (≈ 24 µM) | 0.017 | 0.009 | 5.85 | 6.00 | 6.10 | 
7 | [2H]C([2H])([2H])N(C(=O)c1c(F)cccc1Cl)c1ccc(-c2cc(NC(C)=O)nn2C(C)C)cc1N1CCCCC1 | 7.96 | 1.3 µg/mL (≈ 2.52 µM) | 0.004 | 0.001 | 5.96 | 6.10 | < 5.00 | 
8 | [2H]C([2H])([2H])N(C(=O)c1c(F)cccc1Cl)c1ccc(-c2cc(NC(C)=O)nn2C(C)C)cc1-c1ccccc1 |  |  | 0.004 | 0.004 | 5.68 | 5.96 | < 5.00 | 
9 | CC(=O)Nc1cc(-c2ccc(N(C)C(=O)c3c(F)cccc3Cl)c(N3CC4CC4C3)c2)n(C(C)C)n1 (stereo not drawn) | 6.96 |  | 0.009 | 0.002 | 5.72 | 5.77 |  | 
10 | [2H]C([2H])([2H])N(C(=O)c1c(Cl)cccc1Cl)c1ccc(-c2cc(NC(C)=O)nn2C(C)C)cc1N1CC2CC2C1 (stereo not drawn) | 7.14 | 0.8 µg/mL (≈ 1.51 µM) | 0.004 | 0.001 | 5.82 | 6.22 | 6.30 | 
11 | [2H]C([2H])([2H])N(C(=O)c1c(C)cccc1F)c1ccc(-c2cc(NC(C)=O)nn2C(C)C)cc1N1CC2CC2C1 (stereo not drawn) | 6.45 | 17 µg/mL (≈ 34.5 µM) | 0.011 | 0.002 | 5.70 | 5.82 | < 5.00 | 
12 | [2H]C([2H])([2H])N(C(=O)c1c(F)cccc1Cl)c1ncc(-c2cc(NC(C)=O)nn2C(C)C)cc1N1CC2CC2C1 (stereo not drawn) |  | 48 µg/mL (≈ 93.4 µM) | 0.056 | 0.022 | < 5.00 | 5.21 | 5.89 | 
13 | [2H]C([2H])([2H])N(C(=O)c1c(F)cccc1Cl)c1ccc(-c2cc(NC(=O)CC)nn2C(C)C)cc1N1CC2CC2C1 (stereo not drawn) | 7.48 |  |  |  |  |  |  | 
14 | [2H]C([2H])([2H])N(C(=O)c1c(F)cccc1Cl)c1ccc(-c2cc(NC(=O)C3CC3)nn2C(C)C)cc1N1CC2CC2C1 (stereo not drawn) | 7.06 |  |  |  |  |  |  | 
15 | [2H]C([2H])([2H])N(C(=O)c1c(F)cccc1Cl)c1ccc(-c2cc(NC(=O)C(C)C)nn2C(C)C)cc1N1CC2CC2C1 (stereo not drawn) | 6.89 |  |  |  |  |  |  | 7.82
16 | [2H]C([2H])([2H])N(C(=O)c1c(F)cccc1Cl)c1ccc(-c2cc(NC(=O)[C@H]3C[C@@H](O)C3)nn2C(C)C)cc1N1CC2CC2C1 (stereo partly drawn) | 6.87 |  |  |  |  |  |  | 
17 | [2H]C([2H])([2H])N(C(=O)c1c(F)cccc1Cl)c1ccc(-c2cc(NC(=O)[C@H]3C[C@H](O)C3)nn2C(C)C)cc1N1CC2CC2C1 (stereo partly drawn) | 6.87 |  |  |  |  |  |  | 
18 | [2H]C([2H])([2H])N(C(=O)c1c(F)cccc1Cl)c1ccc(-c2cc(NC(=O)CO)nn2C(C)C)cc1N1CC2CC2C1 (stereo not drawn) | 6.92 |  |  |  |  |  |  | 
19 | [2H]C([2H])([2H])N(C(=O)c1c(F)cccc1Cl)c1ccc(-c2cc(NC(=O)NC)nn2C(C)C)cc1N1CC2CC2C1 (stereo not drawn) | 6.45 |  |  |  |  |  |  | 
20 | [2H]C([2H])([2H])N(C(=O)c1c(F)cccc1Cl)c1ccc(-c2cc(NC(=O)N3CC4(COC4)C3)nn2C(C)C)cc1N1CC2CC2C1 (stereo not drawn) | 6.83 |  |  |  |  |  |  | 
21 | [2H]C([2H])([2H])N(C(=O)c1c(F)cccc1Cl)c1ccc(-c2cc(NC(=O)NC(CO)CO)nn2C(C)C)cc1N1CC2CC2C1 (stereo not drawn) |  |  |  |  |  |  |  | 7.15
22 | [2H]C([2H])([2H])N(C(=O)c1c(F)cccc1Cl)c1ccc(-c2cc(NC(=O)OC3(C)CC3)nn2C(C)C)cc1N1CC2CC2C1 (stereo not drawn) |  |  |  |  |  |  |  | 6.82
23 | [2H]C([2H])([2H])N(C(=O)c1c(F)cccc1Cl)c1ccc(-c2cc(NC(C)=O)nn2C2CCCC2)cc1N1CC2CC2C1 (stereo not drawn) | 7.22 | 0.1 µg/mL (≈ 0.186 µM) | 0.002 | < 0.0005 | 5.89 | 5.89 | 6.30 | 
24 | [2H]C([2H])([2H])N(C(=O)c1c(F)cccc1Cl)c1ccc(-c2cc(NC(C)=O)nn2C2CCC2)cc1N1CC2CC2C1 (stereo not drawn) | 6.70 | 0.5 µg/mL (≈ 0.952 µM) | 0.003 | 0.0004 |  |  |  | 
25 | [2H]C([2H])([2H])N(C(=O)c1c(F)cccc1Cl)c1ccc(-c2cc(NC(C)=O)nn2CC(C)(C)C)cc1N1CC2CC2C1 (stereo not drawn) |  | 0.8 µg/mL (≈ 1.48 µM) |  |  |  |  |  | 
26 | [2H]C([2H])([2H])N(C(=O)c1c(F)cccc1Cl)c1ccc(-c2cc(NC(C)=O)nn2CC2CC2)cc1N1CC2CC2C1 (stereo not drawn) | 6.70 | 10.1 µg/mL (≈ 19.2 µM) | 0.005 | 0.002 | 5.74 | 5.74 | 5.06 | 
27 | [2H]C([2H])([2H])N(C(=O)c1c(F)cccc1Cl)c1ccc(-c2cc(NC(C)=O)nn2C(C)C2CC2)cc1N1CC2CC2C1 (stereo not drawn) |  | 0.5 µg/mL (≈ 0.928 µM) |  |  | 5.03 | 5.89 | 6.05 | 
28 | CC(=O)Nc1nc(C(C)C)c(-c2cnc(N(C)C(=O)c3c(F)cccc3Cl)c(N3CCCCC3)c2)s1 |  | 0.3 µg/mL (≈ 0.566 µM) | 0.003 | 0.002 | 5.66 | 6.10 | 6.40 | 
